Measured values reported in ChEMBL document CHEMBL1151911, “A microwave-assisted facile regioselective Fischer indole synthesis and antitubercular evaluation of novel 2-aryl-3,4-dihydro-2H-thieno[3,2-b]indoles” (2009).
Converted amounts (≈) assume the structure as drawn.

tested on: Mycobacterium tuberculosis; test: Antimycobacterial activity against multi drug-resistant Mycobacterium tuberculosis; type: functional

| SMILES | MIC [µg/mL] |
| --- | --- |
| Fc1ccc2[nH]c3c(c2c1)SC(c1ccccc1Cl)C3 (stereo not given) | 1.56 (≈ 5.14 µM) |
| CC[C@@H](CO)NCCN[C@@H](CC)CO [ETHAMBUTOL] | 12.5 (≈ 61.2 µM) |
| CC(C)c1ccc(C2Cc3[nH]c4ccc(F)cc4c3S2)cc1 (stereo not given) | 0.4 (≈ 1.28 µM) |
| NNC(=O)c1ccncc1 [ISONIAZID] | 1.56 (≈ 11.4 µM) |
| CC(C)c1ccc(C2Cc3[nH]c4ccc(Cl)cc4c3S2)cc1 (stereo not given) | 0.78 (≈ 2.38 µM) |
| Fc1ccc(C2Cc3[nH]c4ccc(Cl)cc4c3S2)cc1 (stereo not given) | 0.78 (≈ 2.57 µM) |
| Clc1ccc(C2Cc3[nH]c4ccc(Cl)cc4c3S2)c(Cl)c1 (stereo not given) | 0.4 (≈ 1.13 µM) |
| Fc1ccc2[nH]c3c(c2c1)SC(c1ccc(Cl)cc1Cl)C3 (stereo not given) | 0.4 (≈ 1.18 µM) |
| Cc1ccc(C2Cc3[nH]c4ccc(Cl)cc4c3S2)cc1 (stereo not given) | 6.25 (≈ 20.8 µM) |
| NC(=O)c1cnccn1 [PYRAZINAMIDE] | 50 (≈ 406 µM) |
| Cc1ccc(C2Cc3[nH]c4ccccc4c3S2)cc1 (stereo not given) | 12.5 (≈ 47.1 µM) |
| Fc1ccc2[nH]c3c(c2c1)SC(c1ccc(Cl)cc1)C3 (stereo not given) | 1.56 (≈ 5.14 µM) |
| Cc1ccc(C2Cc3[nH]c4ccc(F)cc4c3S2)cc1 (stereo not given) | 1.56 (≈ 5.51 µM) |
| Brc1ccccc1C1Cc2[nH]c3ccccc3c2S1 (stereo not given) | 3.13 (≈ 9.48 µM) |
| Fc1ccc2[nH]c3c(c2c1)SC(c1ccccc1)C3 (stereo not given) | 12.5 (≈ 46.4 µM) |
| CC(C)c1ccc(C2Cc3[nH]c4ccccc4c3S2)cc1 (stereo not given) | 0.4 (≈ 1.36 µM) |
| CO[C@H]1/C=C/O[C@@]2(C)Oc3c(C)c(O)c4c(O)c(c(/C=N/N5CCN(C)CC5)c(O)c4c3C2=O)NC(=O)/C(C)=C\C=C\[C@H](C)[C@H](O)[C@@H](C)[C@@H](O)[C@@H](C)[C@H](OC(C)=O)[C@@H]1C [RIFAMPIN] | 3.13 (≈ 3.8 µM) |
| O=[N+]([O-])c1cccc(C2Cc3[nH]c4ccccc4c3S2)c1 (stereo not given) | 0.78 (≈ 2.63 µM) |
| Clc1ccc(C2Cc3[nH]c4ccccc4c3S2)c(Cl)c1 (stereo not given) | 0.78 (≈ 2.44 µM) |
| Clc1ccc2[nH]c3c(c2c1)SC(c1ccccc1Cl)C3 (stereo not given) | 1.56 (≈ 4.87 µM) |
